Reference: patent US7939569B1, “Aniline analogs as glycogen synthase activators” (Hoffmann-La Roche Inc., priority 2009, dated 2011)

Tested on: glycogen synthase
Assay: Glycogen Synthase (GS) Assay
Assay type: biochemical
Conditions: for EC50: compound concentration needed to give 50% maximum activation; for GS SC200: compound concentration needed to stimulate 200% of the enzyme activity
Experimental: Twelve μL per well of substrate solution containing glycogen (4.32 mg/'ml), 2.67 mM UDP-glucose, 21.6 mM phospho(enol)pyruvate and 2.7 mM NADH in 30 mM glycylglycine, pH 7.3 buffer was added into a polystyrene 384-well assay plate (BD Biosciences).
Compound solutions (8 μL/well) at various concentrations (0-300 μM) were added to the assay plate (columns 5-24). Compound solution contains 30 mM glycylglycine, pH 7.3, 40 mM KCl, 20 mM MgCl2, 9.2% DMSO, with (columns 15-24) or without (columns 5-14) 20 mM glucose 6-phosphate.
Enzyme solution (12 μL/well) containing glycogen synthase (16.88 μg/ml), pyruvate kinase (0.27 mg/ml), lactate dehydrogenase (0.27 mg/ml) in 50 mM Tris-HCl, pH 8.0, 27 mM DTT and bovine serum albumin (BSA, 0.2 mg/ml) was added to the assay plate (columns 3-24). As a blank control, enzyme solution without glycogen synthase was added into the top half wells of columns 1-2. To the bottom half wells of columns 1-2 were added a known activator, glucose 6-phosphate (at final concentration 5 mM) in addition to the enzyme solution. The reaction mixture was incubated at room temperature. The assay plate was then read for absorbance at 340 nm on an Envision reader every 3 minutes up to a total of 15 minutes.
The enzyme activity (with or without compound) was calculated by the reaction rate and represented by the optical density change (SOD) per minute. Percent stimulation of glycogen synthase activity by a compound at various concentrations was calculated by the following formula: % stimulation=100*Rs/Rt, Where Rs is the reaction rate of the enzyme in the presence of compound and Rt is the reaction rate of the enzyme in the absence of compound.
SC200 is defined as the compound concentration that is needed to stimulate 200% of the enzyme activity. EC50 is defined as the compound concentration that is needed to give 50% maximum activation.

Row | EC50 | Structure (SMILES) | GS SC200
1 | 5.93 µM | O=C(Nc1cccc(COc2ccc(-c3ccc(F)cc3F)cc2)c1)[C@H]1CCC[C@H]1C(=O)O (racemic) [Example 2, (trans)-2-[3-(2′,4′-Difluoro-biphenyl-4-yloxymethyl)-phenylcarbamoyl]-cyclopentanecarboxylic acid] | 3.24 µM
2 | 4.4 µM | O=C(Nc1cccc(COc2ccc(-c3ccc(F)cc3F)cc2)c1)C1CCC[C@H]1C(=O)O (stereo in doubt) [Example 3, (1R,2R)-2-[3-(2′,4′-Difluoro-biphenyl-4-yloxymethyl)-phenylcarbamoyl]-cyclopentanecarboxylic acid] | 1.3 µM
3 | 6.15 µM | O=C(O)C1CCC[C@@H]1C(=O)Nc1cccc(COc2ccc(-c3ccc(F)cc3F)cc2)c1 (stereo in doubt) [Example 4, (1S,2S)-2-[3-(2′,4′-Difluoro-biphenyl-4-yloxymethyl)-phenylcarbamoyl]-cyclopentanecarboxylic acid] | 2.09 µM
4 | 3.14 µM | O=C(O)[C@H]1CCC[C@H]1C(=O)Nc1cccc(COc2ccc(-c3ccc(F)cc3F)cc2)c1 (stereo in doubt) [Example 6, (1S,2R)-2-[3-(2′,4′-Difluoro-biphenyl-4-yloxymethyl)-phenylcarbamoyl]-cyclopentanecarboxylic acid] | 0.77 µM
5 | 6.96 µM | O=C(O)CCC(=O)Nc1cccc(COc2ccc(-c3ccc(F)cc3F)cc2)c1 [Example 1, N-[3-(2′,4′-Difluoro-biphenyl-4-yloxymethyl)-phenyl]-succinamic acid] | 2.69 µM
6 | 2.84 µM | O=C(Nc1cccc(COc2ccc(-c3ccc(F)cc3F)cc2)c1)[C@H]1CCC[C@H]1C(=O)O [Example 5, (1R,2S)-2-[3-(2′,4′-Difluoro-biphenyl-4-yloxymethyl)-phenylcarbamoyl]-cyclopentanecarboxylic acid] | 0.65 µM
7 | 3.71 µM | COc1cc(F)c(F)cc1-c1ccc(OCc2cccc(N3CCC[C@H]3C(=O)O)c2)cc1 [Example 7, (S)-1-[3-(4′,5′-Difluoro-2′-methoxy-biphenyl-4-yloxymethyl)-phenyl]-pyrrolidine-2-carboxylic acid] | 0.7 µM
8 | 6.37 µM | COc1cc(F)c(F)cc1-c1ccc(OCc2cccc(N3CCC[C@H]3CC(=O)O)c2)cc1 [Example 8, {(S)-1-[3-(4′,5′-Difluoro-2′-methoxy-biphenyl-4-yloxymethyl)-phenyl]-pyrrolidin-2-yl}-acetic acid] | 2.43 µM
9 | 1.02 µM | COc1cc(F)c(F)cc1-c1ccc(OCc2cccc(N(CC(=O)O)C(C)=O)c2)cc1 [Example 9, {Acetyl-[3-(4′,5′-difluoro-2′-methoxy-biphenyl-4-yloxymethyl)-phenyl]-amino}-acetic acid] | 0.33 µM
10 | 5.71 µM | CS(=O)(=O)Nc1cccc(COc2ccc(-c3cc(F)c(F)cc3F)cc2)c1 [Example 10, N-[3-(2′,4′,5′-Trifluoro-biphenyl-4-yloxymethyl)-phenyl]-methanesulfonamide] | 2.41 µM
11 | 2.75 µM | COc1cc(F)c(F)cc1-c1ccc(OCc2cccc(NS(C)(=O)=O)c2)cc1 [Example 11, N-[3-(4′,5′-Difluoro-2′-methoxy-biphenyl-4-yloxymethyl)-phenyl]-methanesulfonamide] | 1.1 µM
12 | 1.48 µM | O=S(=O)(Nc1cccc(COc2ccc(-c3cc(F)c(F)cc3F)cc2)c1)C(F)(F)F [Example 12, C,C,C-Trifluoro-N-[3-(2′,4′,5′-trifluoro-biphenyl-4-yloxymethyl)-phenyl]methanesulfonamide] | 0.95 µM
13 | 0.44 µM | COc1cc(F)c(F)cc1-c1ccc(OCc2cccc(NS(=O)(=O)C(F)(F)F)c2)cc1 [Example 13, N-[3-(4′,5′-Difluoro-2′-methoxy-biphenyl-4-yloxymethyl)-phenyl]-C,C,C-trifluoromethanesulfonamide] | 0.18 µM
